{
  "source": "patent US20080057010A1",
  "about": "“METHOD FOR SKIN CARE” (NULIV SCIENCE LTD., priority 2006, published 2008)",
  "key": {"HaCaT cells": {"system": "HaCaT cells", "assay": "Glucosamine uptake assay in HaCaT cells", "format": "cell-based, human", "conditions": "0.1 μM", "method": "In glucosamine uptake test, HaCaT cells were seeded into 24-well plate at a density of 3×10^4 cells/well and cultured for 24 h. The cells were then treated in the absence (solvent control) or presence of various concentrations of astragalosides for another 48 h. The treated cells were then washed twice with PBS and incubated in glucose and serum free medium (GSFM). After 2 h, the cells were replaced with fresh GSFM containing 0.2 μCi of [^14C]-Glucosamine (American Radiolabelled Chemicals Inc, ARC, St. Louis, Mo., USA). At the designated time interval, the cells were washed twice with GSFM containing cold glucosamine and then lysed in 200 μL 2% SDS. Cell lysates were centrifuged at 15000 g for 15 min. Intracellular uptaken glucosamine was determined by transferring 10 μL of the cell lysate to filter-bottemed UniFilter plates (Perkim-Elmer) and counted. Protein concentration of the samples was measured using the BCA protein assay kit as described above. Glucosamine accumulated in the cells was calculated and normalized to protein concentration and uptake rate was expressed as counts per minute per microgram of cell protein (cpm/min/μg)."}, "MMP-1 [1]": {"system": "MMP-1", "assay": "Quantitative analysis of MMP-1 transcripts in HDF cells (qRT-PCR)", "format": "cell-based, human", "conditions": "0.1 μM, MMP-1 mRNA relative to 0 = 1.00", "method": "Relative levels of MMP-1 expression in HDF cells were determined by qRT-PCR. Preparation of total RNA and cDNA were carried out as described in previous sections. qRT-PCR was performed using the Applied Biosystem 7300 system and pre-developed Taqman Gene Expression Assays (Applied Biosystems, Foster City, Calif., USA). The reaction was performed as described in previous sections except that primer mix for human MMP-1 (assay ID HS00233958_m1, Applied Biosystems) and GAPDH (assay ID Hs99999905_m1, Applied Biosystems) were used.\nResults shown in Tables 6A and 6B represent the quantitated data from zymography analysis of MMP-2 protein in HaCaT cells and qRT-PCR for MMP-1 in HDF cells. The concentrations used were 0, 0.01. 0.1, 1 μM (if not indicated otherwise) for pure compounds; and were 0, 1, 10, 40 μg/mL for crude extract (if not indicated otherwise). The cells were treated with the indicated compounds for 24 h before harvested for analysis of Pro-MMP-2 or activated MMP-2 in whole cell extract. Fifty micrograms of the cell extract samples were used for electrophoresis."}, "collagen III": {"system": "collagen III", "assay": "Collagen III expression and secretion in human HDF cells (western blot)", "format": "cell-based", "conditions": "relative to 0 = 1.00", "method": "(§1) Primary human dermal fibroblasts cells (HDF) were purchased from Cascade Biologics (Portland, Oreg., USA) and cultured in medium 106 supplemented with 10% fetal bovine serum (FBS), 100 IU/mL penicillin, 100 μg/mL of streptomycin. The cells from passages 4 to 10 were used for this study. Culture medium was replaced every other day. After confluence, the cells were subcultured following trypsinization. For subcultures cells were harvested after brief treatment with 0.1% trypsin/EDTA solution and seeded at a dilution of 1:10. The cells were seeded at 1×10^5 cells in 6-well culture plate for 24 h before treated with astragalosides or crude extracts, such as butanol fraction and water insoluble fraction of Astragalus membranaceus for the indicated time periods. Control cultures were maintained in medium supplemented with vehicle (dimethyl sulfoxide, DMSO, 0.1%). No growth and differentiation effects of DMSO were observed under these culture conditions.\n(§2) The cells were treated with pure compounds such as astragaloside I (AS 1), astragaloside II (AS2), astragaloside III (AS3), astragaloside IV (AS4), astragaloside VI (AS6), isoastragaloside I (isoAS1), isoastragaloside II (isoAS2), and cycloastragenol 6-O-β-D-glucopyranose (AA) at concentrations of 0-10 μM. Alternatively, the cells were also treated with the crude extracts, such as butanol fraction and water insoluble fraction of Astragalus membranaceus at concentrations of 0, 1, 10, and 40 μg/mL. The cells were treated with the indicated compounds or the extracts for 24 h before harvested for analysis of collagen I and III expressed in the whole cell extract or secreted into the culture medium.\n(§3) Western blot analysis was carried out on both of cultured medium and cell lysates. The cells were plated on 6-cm dishes at a density of 1×10^6 cells/dish for 24 h prior to treatment with indicated concentrations of astragalus triterpenoids as indicated for another 48 h. The conditioned culture mediums were then centrifuged, 2-fold concentrated and collected for assay of collagens and MMPs secreted into the culture medium. The cells were washed and lysed in 0.2 mL of lysis buffer (1% NP-40, 50 mM Tris-HCl, pH 7.4, 180 mM NaCl, 1 mM EDTA, 1 mM PMSF, 1 mM NaF, 10 mM Na3VO4) for 30 min at 4° C. After centrifuging at 17500 g for 15 min, the supernatants of cell lysate were also collected. Protein concentration of the samples were measured using the bicinchoninic acid (BCA) protein assay kit according to the manufacturer's protocol (Pierce, Rockford, Ill., USA). Equal amount of protein samples of concentrated conditioned medium (100 μg) or cell lysate supernatants (50 μg) were mixed with an appropriate volume of 4×SDS sampling buffer and separated by 8% SDS-PAGE gel. The protein bands separated in the SDS-PAGE gel were blotted onto a polyvinylidene fluoride (PVDF) membrane. The blotted PVDF membrane was washed twice and blocked in freshly prepared Tris-buffered saline (TBS) containing 0.1% Tween-20 and 7% skim milk (TBST) for 2 h at room temperature. The PVDF membrane was then incubated with either antibodies against collagen I and III or the housekeeping protein α-tubulin (Santa Cruz Biotechnology, Santa Cruz, Calif.) for 18 h at 4° C. Horseradish peroxidase-conjugated anti-goat antibody was used as secondary antibody. Signals were visualized by an enhanced chemiluminescence kit (Clonetech, Palo Alto, Calif., USA) followed by exposure to X-ray films."}, "collagen I [2]": {"system": "collagen I", "assay": "Collagen I expression and secretion in human HDF cells (western blot)", "format": "cell-based", "conditions": "relative to 0 = 1.00", "method": "as §1, §2, §3\nThe collagen expression in the human HDF cells was also determined. […] And Collage I was over-expressed in the cells treated with various doses (1, 10, 40 μg/mL) of the crude extracts, such as butanol fraction and water insoluble fraction of Astragalus membranaceus."}, "collagen I [3]": {"system": "collagen I", "assay": "Collagen I expression in human HaCaT cells (western blot)", "format": "cell-based", "conditions": "relative to 0 μM = 1.00", "method": "The Spontaneously transformed human keratinocyte cell lines HaCaT cells were grown at 37° C. in a humidified incubator under 5% CO2 and 95% air in culture medium such as Dulbecco Modified Eagle Medium (DMEM) supplemented with 10% Fetal Bovine Serum (FBS), 100 IU/mL penicillin, 100 μg/mL of streptomycin, 2 mM sodium pyruvate and 1% Non-Essential Amino Acids (NEAA). The culture medium was replaced every other day. After confluence, the cells were subcultured following trypsinization. For subcultures cells were harvested after brief treatment with 0.1% trypsin/ethylenediaminetetraacetic acid (EDTA) solution and seeded at a dilution of 1:10. Cells between passages 12 and 45 were used for studies. The cells were seeded and incubated for 24 h before treated with the astragalosides for 24 h. Control cultures were maintained in medium supplemented with vehicle (dimethyl sulfoxide (DMSO) 0.1%). No growth and differentiation effects of DMSO were observed under these culture conditions.\nas §2, §3\nResults shown represent the quantitated data from western blot analysis. […] The collagen I was also over-expressed in the human HaCaT cells treated with 40 μg/mL of astragaloside extract."}, "MMP-1 [4]": {"system": "MMP-1", "assay": "UV-B-induced MMP-1 expression in human HDF cells (western blot, FIG. 1)", "format": "cell-based", "conditions": "50 mJ/cm^2 UV-B, positive control (FIG. 1 lane 3)", "method": "To characterize the effects of astragalosides on the expression level of MMPs in human cells, HDF or HaCaT cells were first treated with or without various concentrations of astragalosides for 24 h. The cells were washed with phosphate-buffered saline (PBS) and irradiated with 10-100 mJ/cm^2 of UV-B (312 nm) for HDF-1 and HaCaT cells, respectively, using the UV light irradiator (UVItec unlimited, Cambridge, England). The cells were then washed and incubated with serum free medium for 24 h before harvested for analysis. The effect of astragalosides on MMPs levels was analyzed by western blot and the activity of MMPs was analyzed by zymography. All trans retinoic acid (atRA) was used as a positive control to suppress the UV-B-induced MMPs activation and expression.\nHuman HDF cells were treated with the indicated concentrations of water insoluble fraction of Astragalus membranaceus for 24 h. The cells were then irradiated with 50 mJ/cm^2 of UV-B. After 24 h, the cells were harvested for western blot analysis. […] Thus, the water insoluble fraction of Astragalus membranaceus is a potential agent for the prevention and treatment of skin aging as a result of UV irradiation."}},
  "data": [
    {"smiles": "CC(C)(O)C1CC[C@](C)(C2[C@@H](O)C[C@@]3(C)C4C[C@H](OC5OC(CO)C(O)C(O)C5O)C5C(C)(C)[C@@H](O)CCC56CC46CC[C@]23C)O1", "note": "(stereo partly drawn) [AA, cycloastragenol 6-O-β-D-glucopyranose]", "values": [
      {"measurement": "Uptake rate (glucosamine)", "setting": "HaCaT cells; 48 h treatment", "value": "0.9445 ± 0.0823", "unit": "CPM/μg protein"},
      {"measurement": "Percentage (%) of control glucosamine uptake", "setting": "HaCaT cells; relative to control", "value": 114.59, "unit": "%"},
      {"measurement": "MMP-1 Q-PCR", "setting": "MMP-1 [1]", "value": 0.76},
      {"measurement": "Collagen III in medium", "setting": "collagen III; 0.01 μM", "value": 1.03},
      {"measurement": "Collagen III in medium", "setting": "collagen III; 0.1 μM", "value": 1.62},
      {"measurement": "Collagen III in medium", "setting": "collagen III; 1 μM", "value": 1.34},
      {"measurement": "Collagen I in cell", "setting": "collagen I [2]; 0.01 μM", "value": 1.04},
      {"measurement": "Collagen I in medium", "setting": "collagen I [2]; 0.01 μM", "value": 0.97},
      {"measurement": "Collagen I in cell", "setting": "collagen I [2]; 0.1 μM", "value": 1.85},
      {"measurement": "Collagen I in medium", "setting": "collagen I [2]; 0.1 μM", "value": 0.95},
      {"measurement": "Collagen I in cell", "setting": "collagen I [2]; 1 μM", "value": 1.17},
      {"measurement": "Collagen I in medium", "setting": "collagen I [2]; 1 μM", "value": 1.52},
      {"measurement": "Collagen I in cell", "setting": "collagen I [3]; 0.01 μM", "value": 2.57},
      {"measurement": "Collagen I in cell", "setting": "collagen I [3]; 0.1 μM", "value": 3.34},
      {"measurement": "Collagen I in cell", "setting": "collagen I [3]; 1 μM", "value": 3.47}
    ]},
    {"smiles": "CC1=C(/C=C/C(C)=C/C=C/C(C)=C/C(=O)O)C(C)(C)CCC1", "note": "[atRA, All trans retinoic acid]", "values": [
      {"measurement": "UV-mediated induction of MMP-1 expression", "setting": "MMP-1 [4]", "value": "blocked"}
    ]}
  ]
}
